From ChEMBL document CHEMBL3507680, “University of Dundee, Gates Library screen for HepG2 cell viability”

Assay: Human HepG2 cell viability assay in 384 well format
Assay type: toxicity, cell-based
Parameters: dose 125 nL, time 70.5 hour; concentration not given beside the values
Conditions: HepG2 cells, read-out: Inhibition

Compound | cytotoxicity at 70.5 h
CN(CC(=O)NC(C)(C#N)C1CC1)Cc1nc2ccccc2n1C (stereo not given) | 4.49%
COCCNC(=O)N1CCCCC1CNC(=O)Nc1ccccc1 (stereo not given) | -3.88%
NC(=O)CN1CCC(C(=O)NCCn2cc(Cl)cn2)CC1 | 3.62%
Cc1cc(F)ccc1N1CCCC(NS(=O)(=O)CCCF)C1=O (stereo not given) | -6.3%
O=C(NCC1Cn2nnc(-c3ccncc3)c2CO1)c1ccc[nH]1 (stereo not given) | -5.04%
O=c1cc(CNCc2ccc3c(c2)OCO3)nc2ccc(Br)cn12 | 0.0084%
O=S(=O)(Cc1ccc(F)c(Cl)c1)NCCOc1cccnc1 | 3.53%
CCOCC(=O)N(C)Cc1nc(C(F)(F)F)cs1 | 20.5%
Cc1ccccc1CN(CCN(C)C)Cc1ccccc1C(=O)O | -7.13%
CCn1cc(CN2CCC(N3CCC(O)CC3)CC2)cc1C#N | -5.22%
Cc1cccc(C(C)(C)CNC(=O)CCSc2nnnn2C)c1 | -2.6%
N#Cc1cccc(N2CC3(CCN(C(=O)c4ccnnc4)C3)CC2=O)c1 (stereo not given) | -10.5%
COc1c(C2CCCN2C(=O)CCNc2ncccn2)c(C)nn1C (stereo not given) | -10.7%
CCc1nc(CN(C)CC(=O)OC(C)(C)C)cs1 | -4.57%
NC(=O)c1cncc(-n2ccc(-c3cnccn3)n2)c1 | -8.7%
CSc1ccc(C(C(=O)O)N2CCC(CO)CC2)cc1 (stereo not given) | 25.1%
CC1CN(C)CCN1C(=O)c1ccn(-c2ccccc2)n1 (stereo not given) | 17.4%
CCn1cnc(NC(=O)N2CCC(c3ccc(F)cc3)C2)n1 (stereo not given) | -8.46%
O=C(N1CCCC1)N1Cc2nccn2CC(Cn2ncccc2=O)C1 (stereo not given) | -0.168%
CC(C)c1nn(C)c(N(C)C)c1CNCC(O)COc1ccccc1 (stereo not given) | -3.95%
COc1ccc(CC(C)Nc2cccc(SC)c2)cc1 (stereo not given) | -5.87%
Cc1ccc(NC(=O)CNc2ccn(CC(N)=O)n2)c(Cl)c1 | -7.52%
CN1CC(=O)N(c2ccccc2)CC12CCN(Cc1nccs1)C2 (stereo not given) | 3.9%

Compound | cytotoxicity at 70.5 h
CN1CCCN(CC(CC(=O)Nc2ccc(Cl)cc2)C(=O)O)CC1 (stereo not given) | -6.04%
CC(C)Oc1ncccc1CNC(=O)N1CCC1c1ccccc1 (stereo not given) | 26.6%
O=C(NCCN1CCOCC1)C1=NOC2(CCN(Cc3nccs3)C2)C1 (stereo not given) | -17.4%
COc1cc(C(=O)N(C)Cc2nccn2CC(F)(F)F)ccc1C | 15.7%
CC(=O)N1CCO[C@@H]2CN(Cc3cccc(Cl)c3)C[C@@H]2C1 | -2.75%
CCOCCn1c(=O)[nH]c2cc(C(=O)N(C)Cc3cnn(C)c3)ccc21 | -4.48%
Cc1nc(O)cc(CN2CC=C(c3cnn(-c4ccccc4)c3)CC2)n1 | 14.1%
CCc1ccccc1OCCCN(C)C(=O)C1CCCN1C(N)=O (stereo not given) | -8.96%
CNC(=O)CN1CCOCC2(CCCN(Cc3ccsc3)C2)C1 (stereo not given) | -19.5%
NC1(CN2CCCCC2)CCCCC1 | -3.49%
CCS(=O)(=O)N(C)c1ccc(C(=O)N2CCCC(C)C2)cc1 (stereo not given) | -7.21%
CC(C)NC(=O)Nc1ccc(-c2nc3c([nH]2)CCNC3)cc1 | -15.8%
O=C(NCc1nncn1-c1ccccc1)C1CCCC1 | -4.48%
COCCNc1ccc(CC2CCCN(C3CCCC3)C2)nn1 (stereo not given) | -4.76%
CC(NC(=O)NCCCN1CCCC1)c1nncn1C (stereo not given) | -7.79%
COCC(=O)N1C[C@@H]2OCCN(Cc3c(C)noc3C)[C@@H]2C1 | -11.4%
COCCN1CCC(CNC(=O)C2(C#N)CCCC2)CC1 | 17.6%
CCN1CCN(c2ccc(F)cc2C(C)NCc2cscn2)CC1 (stereo not given) | -3.66%
Cc1[nH]ccc1C(=O)N1CCCC(c2nccn2Cc2cscn2)C1 (stereo not given) | 20.2%
Cc1ccc(CN(CCN(C)C)Cc2nc3ccccc3[nH]2)s1 | 11.2%
COC[C@@]12CCO[C@@H]1CCN(C(=O)C1CCOCC1)C2 | -11.6%
CN1CCC2(CC1)CCN(C(=O)c1onc3ccccc13)C2 | -6.04%
Cc1nnc(CN2CCCC2c2ccsc2)o1 (stereo not given) | -4.6%

Compound | cytotoxicity at 70.5 h
CSCCC(=O)N1CCN(CC(C)(C)O)CC1 | -13.7%
O=C1CC(c2cccs2)Cc2[nH]c(=O)ccc21 (stereo not given) | -7.47%
Cc1cc(C)c2[nH]c(=O)c(CN3CCCC(O)(CO)C3)cc2c1 (stereo not given) | -13.5%
O=C1NCC2(CCCN(C(=O)Cn3nc4ccccc4n3)CC2)O1 (stereo not given) | 29.9%
CC(NC(=O)NCC(F)(F)F)c1nncn1C (stereo not given) | 29.7%
Cc1cnn(CCNCc2nc(-c3ccccn3)no2)c1 | -6.05%
CC(C)c1noc(CC[C@@H]2CCCN3CCCC[C@H]23)n1 | -0.439%
COc1ccccc1C1(C(=O)NCCN2CCCCC2)CCOCC1 | 15.9%
O=S(=O)(C1CC1)N1Cc2[nH]nc(COCC3CC3)c2C1 | -6.81%
CCOCCCNC(=O)C1(C)CCC(=O)N1c1cc(OC)ccc1OC (stereo not given) | -2.77%
COC(=O)[C@@H](NC(=O)c1snnc1-c1ccc(OC)cc1)C(C)C | 11.1%
COc1cc(C)sc1C(=O)N1CCC(Nc2cccnc2)CC1 | -5.15%
Cc1nc(C(C)C)sc1C(=O)NCC(C)(C)N1CCOCC1 | -8.1%
CCCOCC1CCN(C(=O)Cn2cccc(OC)c2=O)C1 (stereo not given) | -9.9%
CCOCCc1nc(-c2cnn3c(C)cc(C)nc23)no1 | -107%
O=C(NCC1CC1)[C@H]1CC[C@@H]2[C@@H](CCN2Cc2nccs2)O1 | 1.44%
COc1cc(-c2cnnc(NCCSC)n2)cc(OC)c1OC | -5.18%
CC(C)N1C(=O)CO[C@H]2CCN(C(=O)c3ccc4c(c3)CCC4)CC[C@@H]21 | -3.57%
CCc1nc(C2CCCN2CCc2ccccn2)no1 (stereo not given) | 24.9%
CNc1ncc(CN(C)Cc2cc3n(n2)CCNC3)cn1 | -9%
COc1cc(NCCNC(=O)c2cscc2C)cc(OC)c1 | -2.4%
COc1ccc(N2Cc3nc(=O)n(Cc4cccc(F)c4)n3C2=O)cc1 | -13%
CC(C)CN1CC(c2nc(-c3ccc(F)cc3)c[nH]2)CC1=O (stereo not given) | -7.74%

Compound | cytotoxicity at 70.5 h
CC(C)S(=O)(=O)NCC(Cc1cccc(F)c1)N1CCNC1=O (stereo not given) | -15.5%
COCc1nc2cc(NCc3ccc(C)o3)ccc2o1 | 0.17%
CCc1nnc(Nc2cccc(C3CCN(C(=O)CN(C)C)CC3)n2)s1 | 9.15%
c1cnc(-c2nc(C3CCOC3)no2)cn1 (stereo not given) | -3.44%
Cc1cccc(NC(=O)CN(C)C(=O)c2ccc(OC(C)C)nc2)n1 | -2.88%
COc1ccc(C(=O)NC2CC2)c(OC)c1 | -11.5%
CCN(CC)CCNc1nc(C(C)C)nc2c(C)nn(CC)c12 | -2.61%
Cn1cc(I)c(C(=O)NCCCn2cc(Br)cn2)n1 | 0.223%
CCOCc1nc2c(c(N3CC=CC3)n1)CCN(Cc1ccco1)CC2 | -3.14%
Cc1nccc(N[C@H]2CN(C(=O)CCN3CCCC3=O)C[C@@H]2C(C)C)n1 | -19.6%
COCCNC(C)c1ccc(-c2cccnc2)cc1 (stereo not given) | 0.821%
CCc1nc(NC(=O)NCCc2cccc(C)n2)nn1C | -12.7%
COCC(=O)NCc1nn(CCN2CCCC2)c(=O)c2ccccc12 | 29%
COCC(=O)N1CCCC(C)(c2nncn2C)C1 (stereo not given) | -14.6%
CC1CCC(NS(=O)(=O)CC(=O)NC(C2CC2)C2CC2)CC1 (stereo not given) | 23.5%
O=C(c1ccc(C(F)(F)F)cc1)C1CCCN(C(=O)Cn2cnnn2)C1 (stereo not given) | -15.3%
C[C@@H]1CN(C(=O)c2nc3sccn3c2-c2ncc[nH]2)C[C@H](C)O1 | -7.22%
Cc1ccc(CN[C@@H]2CO[C@H](CNS(=O)(=O)c3ccccc3)[C@H]2O)cc1 | -0.953%
CN(Cc1nnc(C2CC2)o1)C1CCN(CCc2cccs2)C1 (stereo not given) | 30.4%
c1cnnc(N2CCCC2CNCc2noc(C3CC3)n2)c1 (stereo not given) | 27.1%
Cc1cc(C)cc(C(=O)Nc2cccc(CN3CCCC3C(N)=O)c2)c1 (stereo not given) | 6.78%
Cc1nc(CN2C(=O)C[C@H]3[C@H]2CCN3CC2CCOC2)cs1 (stereo not given in full) | 2.38%
COc1ccc(-n2nnc(C(N)=O)n2)cc1 | -7.17%

Compound | cytotoxicity at 70.5 h
CCCc1ncc(C(=O)c2ccc(OC)cc2)n1C | 14.7%
CCOc1ccc(CC(=O)N2CCN(c3nccn3C)CC2)cc1 | -2.2%
CC(C)C(=O)NC1COC2(CCN(C(=O)c3cccnc3)CC2)C1 (stereo not given) | -3.81%
CC(=O)c1ccn(CC(=O)Nc2nn(CC3CC3)c3ccccc23)n1 | -10.7%
CC(C(=O)NC1(C#N)CCCCC1)N1CCc2c(ncn2C)C1 (stereo not given) | -3.36%
CN(C)CC(=O)N1CCC2(CC(=O)N(c3cccc(C#N)c3)C2)C1 (stereo not given) | 4.59%
O=c1nc(SCc2cccnc2)c2c(n1CCO)CCC2 | -7.99%
CCOc1ccc(C(=O)N2CCC(Oc3ccccc3)(C(=O)O)CC2)o1 | -3.49%
Cc1cc(CNC(=O)N2CCc3ccccc32)on1 | -1.25%
CCc1cccc(C)c1NC(=O)C1CC(=O)N(Cc2ccccn2)C1 (stereo not given) | -3.75%
O=C(CN1CCCC1c1cccs1)N1CCc2sccc2C1 (stereo not given) | -0.311%
OC1(CNc2cc(C(F)(F)F)nc3ccccc23)CCOCC1 | -4.81%
CN(C)c1cnn(CC(=O)N2CCN(c3ccccc3)CC2)c(=O)c1 | -5.83%
COCCN1CCC(c2nc3ccc(NC4CCC4)cn3n2)CC1 | 0.236%
O=C(Cc1ccsc1)N1C[C@@H]2C[C@@H](c3nnc(C4CC4)o3)O[C@@H]2C1 | 4.61%
Cn1cc(C2CC(=O)NC23CCN(C(=O)Cc2ccccn2)CC3)cn1 (stereo not given) | -5.18%
CN1CCN(Cc2cnc3n2CCN(C(=O)c2ccncc2)C3)CC1 | -10.3%
Cc1nc(CN(C)C2CCN(CC(=O)NC3CCOCC3)C2)no1 (stereo not given) | 4.94%
CC(C)(C)c1oc(C(N)=O)cc1CN1CCCCC1CN1CCOCC1 (stereo not given) | 39.9%
Cc1cc(CCC(=O)N2CCOCC2)ccc1Br | -5.28%
CCOC[C@@]12CCC[C@@H]1CN(C(=O)COc1ccccc1OC)C2 | -8.07%
CCn1nc(C)c(CN(CCCOC)Cc2ccccn2)c1C | 8.89%
CC(c1ccccc1)N(C)C(=O)CN1CCCc2cc(F)cc(F)c21 (stereo not given) | 12.8%
